From patent US20040209246A1, “Dual reporter/dye reduction methodology for evaluating antiviral and cytotoxicity of hepatitis C virus inhibitors” (Agouron Pharmaceuticals, Inc., priority 2003, published 2004)
Values joined by “and” are separate entries in the source; they are usually repeats but may differ in a detail not shown here. Equal values may be shown once. Read-outs that look alike come from different tables or passages of the source.

Assays:
[1] = tested on: BB7 M4 hRLuc#10 replicon cell line (Huh-7); test: XTT dye reduction cytotoxicity, cell line #10; conditions: read-out: CC50 (XTT); cell line #10, XTT dye reduction, three days incubation
Description: (§1) In the current invention, two end points will be used to measure CC50 values. The first is XTT dye reduction methodology and the second is the use of the second reporter gene integrated in the nucleus of cells carrying the reporter-selectable HCV replicons. In case of both methodologies, a CC50 value will be generated from the same wells from which an EC50 value was obtained. The CC50 value would be generated by calculating % cytotoxicity of the inhibitor/compound treated wells compared to the no inhibitor/compound well resulting in generation of a dose dependent curve to obtain the value that was responsible for the death of 50% of the cells.
(§2) Cell line BB7 M4 hRLuc#10 was grown in DMEM without phenol red (catalog # 1053-028) at 10% FBS with 4 mM L-glutamine, 1×Pen-step, 1×non-essential amino acids, and 200 μg/ml G418 (all from Gibco BRL/Invitrogen). Line B6b was grown in the same media with the addition of 6 μg/ml Blasticidin (ICN Biomedicals). Experiments in these replicon lines were carried out in 96-well black wall, clear-bottom plates (Costar®; Corning Incorporated). Cells were seeded as diagrammed in the figure below at a density of 2×10^4/well in 100 μl DMEM (described above) without G418 or Blasticidin. […]
(§3) Cell line BB7 M4 hRLuc #10 contained the selectable reporter replicon BB7 M4-hRLuc, which served as an anti-viral marker, but cytotoxicity had to be measured by XTT. […]

[2] = tested on: reporter-selectable HCV replicon BB7M4hRLuc in BB7 M4 hRLuc#10 Huh-7 cells; test: HCV replicon hRLuc reporter antiviral assay, cell line #10; type: cell-based, Hepatitis C virus; conditions: cell line #10, hRLuc endpoint, three days incubation
Experimental: (§4) An HCV replicon reporter assay system can be developed to determine the specific antiviral activity of inhibitors in standard dose response assays. In such assays, the reporter-selectable containing Huh-7 cells are incubated in 96 wells containing serial dilutions of test inhibitors or no inhibitor. At a specified time after incubation, the activities of the viral-encoded reporter genes are measured in the cell lines using the appropriate reporter assay methodologies. Data from the reporter gene measurements can be expressed as the percent of reporter gene activity in inhibitor-treated cells relative to that of inhibitor-free cells. An analysis of the antiviral component of such data allows for the calculation of the fifty-percent effective concentration (EC50).
In another embodiment of the invention, the dual antiviral activity/cytotoxicity reporter assay system, in conjunction with recording cytotoxicity in the same wells by the dye reduction method, can be used to determine the specific antiviral activity of inhibitors in standard dose response assays using three endpoints. In such assays, target cells containing the reporter-selectable replicon in microtiter are incubated for a desired duration of time at 37° C. and 5% CO2 with plates containing serial dilutions of test inhibitors or no inhibitor. After the incubation period, the activities of the viral and target cell-encoded reporter genes, as well as cytotoxicity by the dye reduction method, are measured using the appropriate dual reporter assay methods subsequent to the measurement of cellular proliferation by dye reduction. Data from the reporter gene and cellular proliferation measurements can be expressed as the percent of reporter gene activity or optical density (OD) reading in inhibitor-treated cells relative to that of inhibitor-free cells. […] The therapeutic index (TI), which is a measurement of the specific antiviral activity of an inhibitor, can then be calculated by dividing the cytotoxicity (CC50) by the antiviral activity (EC50).

[3] = tested on: B6b dual reporter replicon cell line (Huh-7); test: XTT dye reduction cytotoxicity, cell line B6b; conditions: read-out: CC50 (XTT), three days incubation
Description: as §1, §2, §3

[4] = tested on: B6b dual reporter replicon cell line (Huh-7); conditions: read-out: CC50 (FLuc), three days incubation
Description: as §1, §2, §3

[5] = tested on: reporter-selectable HCV replicon BB7M4hRLuc in B6b Huh-7 cells; test: HCV replicon hRLuc reporter antiviral assay, dual reporter cell line B6b; type: cell-based, Hepatitis C virus; conditions: hRLuc endpoint, three days incubation
Experimental: as §4
In another embodiment of the invention, the dual antiviral activity/cytotoxicity reporter assay system, in conjunction with recording cytotoxicity in the same wells by the dye reduction method, can be used to determine the specific antiviral activity of inhibitors in standard dose response assays using three endpoints. In such assays, target cells containing the reporter-selectable replicon in microtiter are incubated for a desired duration of time at 37° C. and 5% CO2 with plates containing serial dilutions of test inhibitors or no inhibitor. After the incubation period, the activities of the viral and target cell-encoded reporter genes, as well as cytotoxicity by the dye reduction method, are measured using the appropriate dual reporter assay methods subsequent to the measurement of cellular proliferation by dye reduction. Data from the reporter gene and cellular proliferation measurements can be expressed as the percent of reporter gene activity or optical density (OD) reading in inhibitor-treated cells relative to that of inhibitor-free cells. An analysis of the antiviral component of such data allows for the calculation of the fifty-percent effective concentration (EC50) or ninety-percent effective concentration […] of an inhibitor. In addition, an analysis of the cytotoxicity component of the data can be used to calculate the 50% cytotoxicity concentration (CC50) of an inhibitor. The therapeutic index (TI), which is a measurement of the specific antiviral activity of an inhibitor, can then be calculated by dividing the cytotoxicity (CC50) by the antiviral activity (EC50).

Compound	CC50 [1]	EC90 [2]	EC50 ([2]; read-out: EC50)	CC50 [3]	CC50 [4]	EC50 ([5]; read-out: EC50)	EC90 ([5]; read-out: EC90)	EC50 [2]	EC50 [5]	EC90 [5]
OC[C@H]1O[C@@H](n2cnc3cc(Cl)c(Cl)cc32)[C@H](O)[C@@H]1O [DRB, 5,6-dichlorobenzimidazole riboside]	53.6 µM and 48.7 µM	50.2 µM and 58 µM	21.5 µM and 33.2 µM	48.7 µM and 40.4 µM	85.1 µM and 60.7 µM	34.1 µM and 53.7 µM	43.5 µM and 55 µM	–	–	–
interferon alpha [IFN]	–	–	–	–	–	–	–	0.38 IU/ml and 0.67 IU/ml	0.39 IU/ml and 0.43 IU/ml	2.1 IU/ml and 2.6 IU/ml
